The source of these data is publication PMC10916382, “Repurposing screen identifies novel candidates for broad-spectrum coronavirus antivirals and druggable host targets” (Antimicrobial Agents and Chemotherapy, 2024).

A word on the IC50: it is the concentration needed to halve the response being measured. In general, viability refers to a read-out of living cells in per cent, often relative to untreated cells.

Where two headings read alike, the source gives them in different places.

One data set relates to HCoV-229E. Put plainly: microbe, parasite or virus in culture. Format: cell-based, Homo sapiens sapiens. The following applies: Human coronavirus 229E, Huh7.5.
For the next data set, the system named is Huh-7.5/F-Luc cells. The conditions noted are these: Huh-7.5 cells, dose series, maximum tested dose 5 µM.
The subject of a further data set is SARS-CoV-2. The conditions noted are these: Calu-3 cells, immunofluorescence imaging.
The nature of another data set: in vitro. The conditions noted are these: for viability: Anti-SARS-CoV-2 screening on Calu-3 cells: viability [% of control], Calu-3 cells.

`CN1CCC(c2cn(C)c3ccc(OS(=O)(=O)c4c(F)cccc4F)cc23)CC1` [LY-483518] gave an IC50 in the data set with HCoV-229E of 1030 nM. Moreover, in the data set with Huh-7.5/F-Luc cells, the “CC50 (µM)” value is recorded as “greater than maximum tested dose”. The “Anti-SARS-CoV-2 screening on Calu-3 cells: intracellular SARS-CoV-2 infection measured via immunofluorescence imaging [% of control]” value (“Anti-SARS-CoV-2 screening … [% of control]” below) with SARS-CoV-2 is 109.16 % of control. Moreover, the viability at 48 h, 5 µM in “in vitro” is 111%.
Consider `Cc1nc2c(N3CCNCC3)cccc2n1S(=O)(=O)c1ccccc1` [PF-5212377], for which the IC50 with HCoV-229E is 1150 nM. For the same compound, the “CC50 (µM)” value in the data set on Huh-7.5/F-Luc cells is “greater than maximum tested dose”. Also, in the data set on SARS-CoV-2, the “Anti-SARS-CoV-2 screening … [% of control]” value is on record as 99.72 % of control. In addition, the viability in the data set “in vitro” amounted to 104%.
In the data set with HCoV-229E, `O=C1NCCN1CCN1CCC(c2cn(-c3ccc(F)cc3)c3ccc(Cl)cc23)CC1` [sertindole] displayed an IC50 of 960 nM. The “CC50 (µM)” value with Huh-7.5/F-Luc cells is “greater than maximum tested dose”. In addition, the “Anti-SARS-CoV-2 screening … [% of control]” value with SARS-CoV-2 was 107.90 % of control. In addition, the viability at 48 h, 5 µM in the data set “in vitro” was 106%.
For the compound `CN(C)CCOC1=Cc2ccccc2Sc2ccc(Cl)cc21` [zotepine], the IC50 in the data set on HCoV-229E was 1040 nM. Also, the “CC50 (µM)” value with Huh-7.5/F-Luc cells is “greater than maximum tested dose”. Also, the “Anti-SARS-CoV-2 screening … [% of control]” value in the data set on SARS-CoV-2 is 107.66 % of control. Also, the viability at 48 h, 5 µM in the data set “in vitro” came to 98.1%.
Take `CCSc1ccc2c(c1)N(CCCN1CCN(C)CC1)c1ccccc1S2` [Thiethylperazine dimaleate]: in the data set on HCoV-229E, half-maximal inhibition (IC50) required 930 nM. Moreover, the “CC50 (µM)” value in the data set on Huh-7.5/F-Luc cells is recorded as “greater than maximum tested dose”. Moreover, in the data set on SARS-CoV-2, the “Anti-SARS-CoV-2 screening … [% of control]” value is 110.38 % of control. Also, in the data set “in vitro”, the viability turned out to be 95.3%.
`CNCc1ccc(C)c(NC(=O)c2ccc(Nc3nc(-c4ccccc4)c4ccccc4n3)cc2)c1` [XL-139]: the IC50 in the data set with HCoV-229E worked out at 620 nM. In addition, the “CC50 (µM)” value with Huh-7.5/F-Luc cells was “greater than maximum tested dose”. Moreover, the “Anti-SARS-CoV-2 screening … [% of control]” value with SARS-CoV-2 is given as 109.44 % of control. The viability in “in vitro” was 107%.
Compound `COc1ccc(C(C)C)cc1CNC1C2CCN(CC2)C1C(c1ccccc1)c1ccccc1` (centres unmarked) [RFM-011-108-0] yielded an IC50 in the data set on HCoV-229E of 850 nM. In addition, the “CC50 (µM)” value in the data set with Huh-7.5/F-Luc cells was “greater than maximum tested dose”. Further, the “Anti-SARS-CoV-2 screening … [% of control]” value with SARS-CoV-2 is recorded as 86.21 % of control. For the same compound, in “in vitro”, the viability at 48 h, 5 µM is 96.4%.
Take `CNC1CC(c2ccc(Cl)c(Cl)c2)c2ccccc21` (centres unmarked) [Indatraline]: the IC50 in the data set on HCoV-229E (read-out: IC50) turned out to be 830 nM. In addition, the “CC50 (µM)” value in the data set with Huh-7.5/F-Luc cells is on record as “greater than maximum tested dose”. Moreover, the “Anti-SARS-CoV-2 screening … [% of control]” value with SARS-CoV-2 is on record as 97.64 % of control. Also, the viability in “in vitro” amounted to 88.1%.
As for `COc1ccc(C(C)C)cc1CN[C@@H]1C2CCN(CC2)[C@H]1C(c1ccccc1)c1ccccc1` [RFM-011-107-9], in the data set on HCoV-229E, the IC50 was 1100 nM. The “CC50 (µM)” value with Huh-7.5/F-Luc cells is reported as “greater than maximum tested dose”. Besides, in the data set on SARS-CoV-2, the “Anti-SARS-CoV-2 screening … [% of control]” value is listed as 82.87 % of control. The viability at 48 h, 5 µM in “in vitro” worked out at 83.9%.
For `C1CCC(C(CC2CCCCN2)C2CCCCC2)CC1` (centres unmarked) [PERHEXILINE], in that order: 670 nM, “greater than maximum tested dose”, 116.50 % of control and 97%.
In the data set on HCoV-229E, `CNCc1ccc(OC)c([C@@]2(N3CCC[C@H]3c3ncco3)C(=O)N(S(=O)(=O)c3ccc(OC)cc3)c3ccc(Cl)cc32)c1` [RFM-011-199-9] displayed an IC50 of 800 nM. The “CC50 (µM)” value in the data set on Huh-7.5/F-Luc cells was “greater than maximum tested dose”. For the same compound, the “Anti-SARS-CoV-2 screening … [% of control]” value with SARS-CoV-2 is reported as 113.08 % of control. The viability in “in vitro” came out at 95.4%.
